Values joined by “and” are separate entries in the source; they are usually repeats but may differ in a detail not shown here. Identical values can stand only once.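 Briefly, cells in 96-well plates were exposed to five compound concentrations for 48 h, and endpoints were estimated by linear interpolation. Abbreviation: GI50, concentration required for 50% inhibition of growth. At the TGI there is no net growth.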
Assays:
Test in all cases: NCI tumour cell line growth inhibition, 48 h
SK-OV-3 ovarian = system: SK-OV-3 ovarian
NCI-H23 lung = system: NCI-H23 lung
OVCAR-8 ovarian = system: OVCAR-8 ovarian
TK-10 renal = system: TK-10 renal
SF-539 CNS = system: SF-539 CNS
DU-145 prostate = system: DU-145 prostate
KM12 colon = system: KM12 colon
NCI-H226 lung = system: NCI-H226 lung
OVCAR-3 ovarian = system: OVCAR-3 ovarian
MALME-3M melanoma = system: MALME-3M melanoma

Structure (SMILES) | GI50 (SK-OV-3 ovarian) | TGI (SK-OV-3 ovarian) | GI50 (NCI-H23 lung) | TGI (NCI-H23 lung) | GI50 (OVCAR-8 ovarian) | TGI (OVCAR-8 ovarian) | GI50 (TK-10 renal) | TGI (TK-10 renal) | GI50 (SF-539 CNS) | TGI (SF-539 CNS) | GI50 (DU-145 prostate) | TGI (DU-145 prostate) | GI50 (KM12 colon) | TGI (KM12 colon) | GI50 (NCI-H226 lung) | TGI (NCI-H226 lung) | GI50 (OVCAR-3 ovarian) | TGI (OVCAR-3 ovarian) | GI50 (MALME-3M melanoma) | TGI (MALME-3M melanoma)
O=C(N/N=C/c1ccncc1)c1ccc(F)cc1 | > 40 µM | > 40 µM | > 40 µM | > 40 µM | > 40 µM | > 40 µM | > 40 µM | > 40 µM | > 40 µM | > 40 µM | > 40 µM | > 40 µM | > 40 µM | > 40 µM | > 40 µM | > 40 µM | > 40 µM | > 40 µM | > 40 µM | > 40 µM
Cc1cc(C)c2c(c1)N(C)c1ncnc(-n3cnc4cc(C)ccc43)c1CC2C (centres undefined) | 4.41 µM | > 100 µM | 4.87 µM | > 100 µM | 3.79 µM | 20 µM | 7.37 µM | > 100 µM | 2.74 µM | 9.16 µM | 4.44 µM | 63.7 µM | 3.67 µM | 26 µM | 3.1 µM | 17.9 µM | 3.32 µM | 14.7 µM | 3.61 µM | 17.3 µM
COc1cc(C)[nH]c(=O)c1CNC(=O)c1c(C)n([C@H](C)C2CCN(CC(F)(F)F)CC2)c2ccccc12 | 51.8 µM | > 100 µM | > 100 µM | > 100 µM | > 100 µM | > 100 µM | 88.5 µM | > 100 µM | 67.4 µM | > 100 µM | 57.8 µM | > 100 µM | 41.6 µM | > 100 µM | 34.4 µM | > 100 µM | 43.3 µM | > 100 µM | 87.8 µM | > 100 µM
C[C@]12CC[C@H]3[C@@H](CC[C@]4(O)C[C@@H](O[C@@H]5O[C@H](CO)[C@@H](O[C@@H]6OC[C@@H](O)[C@H](O)[C@H]6O)[C@H](O)[C@H]5O)CC[C@]34C=O)[C@@]1(O)CC[C@@H]2C1=CC(=O)OC1 | 1.75 µM | 7.69 µM | 0.839 µM | 2.71 µM | 1.62 µM | 5.56 µM | 1.19 µM | 4.49 µM | 0.853 µM | 1.84 µM | 0.902 µM | 2.31 µM | 1.98 µM | 8.23 µM | 1.47 µM | 3.69 µM | 1.17 µM | 3.08 µM | 1.49 µM | 3.45 µM
CC(=O)N[C@@H](Cc1ccc(OP(=O)(O)O)cc1)C(=O)N[C@H]1CCC(=O)N2CCC[C@@H](C(=O)NC3CCc4ccccc43)N2C1=O (some centres undefined) | > 25 µM | > 25 µM | > 25 µM | > 25 µM | > 25 µM | > 25 µM | > 25 µM | > 25 µM | > 25 µM | > 25 µM | > 25 µM | > 25 µM | > 25 µM | > 25 µM | > 25 µM | > 25 µM | > 25 µM | > 25 µM | > 25 µM | > 25 µM
CCOc1ccc2c(c1)C(=O)c1c-2n(CCCN=[N+]=[N-])c(=O)c2cc([N+](=O)[O-])ccc12 | 5.9 µM | 36.2 µM | 0.997 µM | > 100 µM | 11.9 µM | > 100 µM | 30.8 µM | > 100 µM | 3.88 µM | 19 µM | 3.86 µM | 38.6 µM | 23.9 µM | > 100 µM | 2.24 µM | 9.92 µM | 20 µM | > 100 µM | 15.4 µM | 61.5 µM
O=C(/C=C/C=C/c1ccc2c(c1)OCO2)N/N=C\c1ccc(O)cc1O | 3.43 µM | 20.9 µM | 2.11 µM | 10.6 µM | 2.67 µM | 29.9 µM | 2.95 µM | 33 µM | 2.7 µM | 11.6 µM | 3.46 µM | 22.3 µM | 2.92 µM | 20.6 µM | 2.78 µM | 11.3 µM | 0.345 µM | 12.8 µM | 2.03 µM | 10.5 µM
Cn1c(=O)c(Oc2ccc(F)cc2F)cc2cnc(NCC(C)(C)O)nc21 | > 25 µM | > 25 µM | > 25 µM | > 25 µM | > 25 µM | > 25 µM | > 25 µM | > 25 µM | > 25 µM | > 25 µM | > 25 µM | > 25 µM | > 25 µM | > 25 µM | > 25 µM | > 25 µM | > 25 µM | > 25 µM | > 25 µM | > 25 µM
NC(=O)c1csc(-c2ccc(CO)o2)n1 | – | > 100 µM | – | > 100 µM | – | > 100 µM | – | > 100 µM | – | > 100 µM | – | > 100 µM | – | > 100 µM | – | > 100 µM | – | > 100 µM | – | > 100 µM
CCC(C)C1NC(=O)C(NC(=O)C(CC(C)C)N(C)C(=O)[C@@H]2CC(O)CN2C(=O)[C@H](C)O)C(C)OC(=O)[C@H](Cc2ccc(OC)cc2)N(C)C(=O)[C@@H]2CCCN2C(=O)[C@H](CC(C)C)NC(=O)C(C)C(=O)[C@H](C(C)C)OC(=O)CC1O (some centres undefined) | 0.0209 µM | 1.11 µM and 0.404 µM | – | 0.172 µM | 0.107 µM | 4.38 µM and 2.62 µM | 0.224 µM | 4.52 µM and 2.05 µM | 0.0104 µM | 0.211 µM and 0.335 µM | 0.0884 µM | 3.35 µM and 1.85 µM | < 0.01 µM | 0.735 µM and 0.173 µM | 0.0799 µM | 0.521 µM and 0.572 µM | 0.0793 µM | 1.26 µM and 0.982 µM | 0.013 µM | 1.07 µM and 0.185 µM
O=C(CCN1CCCN(c2cnc3ccccc3n2)CC1)c1csc2ccccc12 | > 100 µM | > 100 µM | 20.8 µM | 46.7 µM | 21.6 µM | 48.4 µM | 16.1 µM | 29.5 µM | 18.9 µM | 33.2 µM | 16.6 µM | 32.4 µM | 16 µM | 29.4 µM | 21.1 µM | 38.5 µM | 18.9 µM | 32.9 µM | 18 µM | 32.1 µM
O=C(O)c1ccc(/C=N/N=C2c3ccccc3-c3ccccc32)cc1 | – | > 100 µM | – | > 100 µM | – | > 100 µM | – | > 100 µM | – | 92.3 µM | – | > 100 µM | – | > 100 µM | – | 45.5 µM | – | 67.4 µM | – | > 100 µM
COc1cc(C2CC(c3cccc(Nc4ccnc5cc(Cl)ccc45)c3)=NN2c2ccccc2)cc(OC)c1OC (centres undefined) | > 100 µM | > 100 µM | 64.4 µM | > 100 µM | 7.68 µM | > 100 µM | 9.57 µM | > 100 µM | 3.08 µM | 18.1 µM | > 100 µM | > 100 µM | 2 µM | > 100 µM | 41.2 µM | > 100 µM | 8.64 µM | > 100 µM | > 100 µM | > 100 µM
Cc1c(C(=O)c2ccccc2)[n+](=O)c2cc(F)c(F)cc2n1[O-] | 3.7 µM | 12.9 µM | 1.72 µM | 3.16 µM | 2.02 µM | 4.32 µM | 1.36 µM | 17.5 µM | 3.94 µM | 12.9 µM | 10.8 µM | 24.5 µM | 11.4 µM | 25 µM | 2.67 µM | 4.34 µM | 1.53 µM | 3.04 µM | 2.7 µM | 7.76 µM
COc1c(B(O)O)cccc1-c1nc2c(F)cc3n[nH]c(C)c3c2c2c1CCCC2 | 0.666 µM | 4.71 µM | 1.33 µM | > 27.8 µM | 1.22 µM | > 50 µM | 0.0215 µM | 49.6 µM | 0.212 µM | 2.97 µM | 1.42 µM | > 50 µM | 1.31 µM | > 50 µM | 0.892 µM | > 14.2 µM | 1.48 µM | > 50 µM | 2.5 µM | 7.73 µM
CN(C)C1CN(C(=O)c2cc(-c3ccc4ncnc(N5CCc6cc(F)c(Cl)cc65)c4c3)cnc2N)C1 | 1.17 µM | > 100 µM | 1.25 µM | > 100 µM | 0.819 µM | > 100 µM | 0.786 µM | 4.95 µM | 0.827 µM | 5.07 µM | 0.594 µM | > 100 µM | 1.13 µM | > 100 µM | 0.986 µM | > 100 µM | 0.585 µM | 5.2 µM | 0.453 µM | 3.66 µM
